Converted amounts (≈) assume the structure as drawn.
Tested on: Pasteurella multocida
Experiment: minimum inhibitory concentration (MIC)
Experimental: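 Broth microdilution MIC (Sensititre BOPO7F bovine plate, CLSI methods) of 19 antimicrobials against field isolates of P. multocida, M. haemolytica, H. somni (deep nasopharyngeal swabs) and E. coli, Enterococcus spp. (rectal swabs) from weaned dairy heifers. Incubation 16-24 h at 35 C. MIC is the lowest concentration preventing visible growth. Values with <= or > lie at the tested range limits. Trimethoprim-sulfamethoxazole is given as the trimethoprim component of a 1:19 mixture.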

CCN1CCN(c2cc3c(cc2F)c(=O)c(C(=O)O)cn3C2CC2)CC1 [Enrofloxacin]
Conditions | minimum inhibitory concentration [µg/mL]
isolate (source animal id): 10 | 1 (≈ 2.78 µM)
isolate (source animal id): 11 | 1 (≈ 2.78 µM)
isolate (source animal id): 12 | 1 (≈ 2.78 µM)
isolate (source animal id): 19 | 1 (≈ 2.78 µM)
isolate (source animal id): 23 | 1 (≈ 2.78 µM)
isolate (source animal id): 26 | 2 (≈ 5.56 µM)
isolate (source animal id): 98 | 2 (≈ 5.56 µM)
isolate (source animal id): 104 | 0.5 (≈ 1.39 µM)
isolate (source animal id): 115 | ≤ 0.12
isolate (source animal id): 117 | > 2
isolate (source animal id): 118 | 2 (≈ 5.56 µM)
isolate (source animal id): 121 | ≤ 0.12
isolate (source animal id): 124 | 1 (≈ 2.78 µM)
isolate (source animal id): 125 | 1 (≈ 2.78 µM)
isolate (source animal id): 128 | ≤ 0.12
isolate (source animal id): 131 | > 2
isolate (source animal id): 135 | > 2
isolate (source animal id): 136 | ≤ 0.12
isolate (source animal id): 140 | 1 (≈ 2.78 µM)
isolate (source animal id): 144 | 1 (≈ 2.78 µM)
isolate (source animal id): 146 | 1 (≈ 2.78 µM)
isolate (source animal id): 150 | ≤ 0.12
isolate (source animal id): 151 | ≤ 0.12
isolate (source animal id): 153 | 1 (≈ 2.78 µM)
isolate (source animal id): 155 | 0.5 (≈ 1.39 µM)
isolate (source animal id): 157 | 2 (≈ 5.56 µM)
isolate (source animal id): 160 | ≤ 0.12
isolate (source animal id): 164 | ≤ 0.12
isolate (source animal id): 165 | ≤ 0.12
isolate (source animal id): 167 | ≤ 0.12
isolate (source animal id): 168 | 2 (≈ 5.56 µM)
isolate (source animal id): 169 | ≤ 0.12
isolate (source animal id): 170 | ≤ 0.12
isolate (source animal id): 171 | ≤ 0.12
isolate (source animal id): 172 | ≤ 0.12
isolate (source animal id): 173 | 2 (≈ 5.56 µM)
isolate (source animal id): 174 | ≤ 0.12
isolate (source animal id): 175 | ≤ 0.12
isolate (source animal id): 176 | ≤ 0.12
isolate (source animal id): 177 | ≤ 0.12
isolate (source animal id): 178 | ≤ 0.12
isolate (source animal id): 179 | ≤ 0.12
isolate (source animal id): 182 | ≤ 0.12
isolate (source animal id): 192 | ≤ 0.12
isolate (source animal id): 193 | ≤ 0.12
isolate (source animal id): 195 | ≤ 0.12
isolate (source animal id): 196 | ≤ 0.12
isolate (source animal id): 197 | ≤ 0.12
isolate (source animal id): 198 | 2 (≈ 5.56 µM)
isolate (source animal id): 199 | ≤ 0.12
isolate (source animal id): 200 | ≤ 0.12
isolate (source animal id): 201 | ≤ 0.12
isolate (source animal id): 203 | ≤ 0.12
isolate (source animal id): 204 | ≤ 0.12
isolate (source animal id): 205 | 2 (≈ 5.56 µM)
isolate (source animal id): 206 | ≤ 0.12
isolate (source animal id): 207 | ≤ 0.12
isolate (source animal id): 208 | ≤ 0.12
isolate (source animal id): 209 | ≤ 0.12
isolate (source animal id): 210 | 2 (≈ 5.56 µM)
isolate (source animal id): 213 | ≤ 0.12
isolate (source animal id): 216 | ≤ 0.12
isolate (source animal id): 223 | > 2
isolate (source animal id): 227 | ≤ 0.12
isolate (source animal id): 229 | 2 (≈ 5.56 µM)
isolate (source animal id): 233 | 2 (≈ 5.56 µM)
isolate (source animal id): 234 | 2 (≈ 5.56 µM)
isolate (source animal id): 237 | > 2
isolate (source animal id): 241 | > 2
isolate (source animal id): 245 | > 2
isolate (source animal id): 247 | 0.5 (≈ 1.39 µM)
isolate (source animal id): 250 | 1 (≈ 2.78 µM)
isolate (source animal id): 254 | 2 (≈ 5.56 µM)
isolate (source animal id): 255 | 2 (≈ 5.56 µM)
isolate (source animal id): 258 | ≤ 0.12
isolate (source animal id): 261 | 2 (≈ 5.56 µM)
isolate (source animal id): 262 | 1 (≈ 2.78 µM)

Reference: the supplement of paper PMC8612539
